Experiments:
[1] = molecular target: GTPγS-bound human HRasG12V / human c-Raf-1 Ras binding domain (RBD) (Homo sapiens (Human), UniProt P01112, G12V); assay: Ras-Raf binding inhibition ELISA; details: for IC50: anti-HRas antibody C-20, read-out: ELISA IC50 (μM): 1st Ab_C-20
How it was run: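 GST-c-Raf-1 RBD (aa 50-131) immobilized on glutathione plates, then GTPγS-loaded full-length HRasG12V added with compound (final 10% DMSO), 1 h at 30 °C, pH 7.4 Tris buffer. Bound Ras detected by anti-HRas antibody (C-20 or 259) and HRP secondary, TMB read at OD450; IC50 from inhibition.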

[2] = tested on: large bowel cancer cell SW620 (K-RasG12V); assay: Cell growth inhibition, adherent cells SW620; assay type: cell-based; details: Homo sapiens, SW-620; 3.2 μM (***), 72 hours; read-out: SW620 (KRasG12V) % inhibition at 3.2 μM (***)
Protocol: (§1) The cell growth inhibitory activity of the compound of the present invention on human culture cells having active-type mutation in Ras was evaluated by the below-mentioned method using suspension cancer cells {acute lymphoblastic leukemia cells CCRF-CEM (K-RasG12D), promyelocytic leukemia cells HL60 (N-RasQ61L), acute lymphoblastic leukemia cells MOLT4 (N-RasG12C), and small cell lung cancer cells SHP77 (K-RasG12V)} and adherent cancer cells {large bowel cancer cells SW480 (K-RasG12V) and large bowel cancer cell SW620 (K-RasG12V)}.
(Case of adherent cells) The cells suspended in a medium containing 10% FBS (1 to 2×10^4 cells/well) were seeded on a 96-well plate, and were then cultured at 37° C. in the presence of […]. Thereafter, the medium was exchanged with a medium containing […], to which each compound solution (final DMSO concentration: […]) had been added, and the cells were then cultured at 37° C. in the presence of […] for 72 hours.
(§2) Thereafter, the number of viable cells was measured using Cell Counting Reagent (Nacalai Tesque) in accordance with the manufacturer's instructions. Inhibition by the test compound was determined according to the following equation: […]

[3] = tested on: small cell lung cancer cells SHP77 (K-RasG12V); assay: Cell growth inhibition, suspension cells SHP77; assay type: cell-based; details: Homo sapiens, 3.2 μM (**), 72 hours, read-out: SHP77 (KRasG12V) % inhibition at 3.2 μM (**)
Protocol: as §1
(Case of suspension cells) The cells suspended in a medium containing 0.5% (v/v) fetal bovine serum (FBS) and each compound solution (final DMSO concentration: 1%) were seeded on a 96-well plate (2 to 4×10^4 cells/well), and the resulting mixture was then cultured at 37° C. in the presence of 5% CO2 for 72 hours.
as §2

Chain of GTPγS-bound human HRasG12V / human c-Raf-1 Ras binding domain (RBD) (P01112 whole entry G12V, the tested form may be a part): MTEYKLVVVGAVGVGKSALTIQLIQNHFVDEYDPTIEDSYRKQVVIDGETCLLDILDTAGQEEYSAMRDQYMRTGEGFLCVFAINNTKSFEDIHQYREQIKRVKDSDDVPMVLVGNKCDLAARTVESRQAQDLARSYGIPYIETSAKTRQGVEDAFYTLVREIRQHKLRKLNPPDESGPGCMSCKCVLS

Compound | inhibition at 1 µM [1] [%] | IC50 [1] [µM] | inhibition at 3.2 µM [2] [%] | inhibition at 3.2 µM [3] [%]
CC(=O)N1/C(=C\c2cc(-c3cccc4ccccc34)c3cc(C(=O)O)ccc3n2)C(=O)c2ccccc21 [Example 153, (Z)-2-((1-acetyl-3-oxoindolin-2-ylidene)methyl)-4-(naphthalen-1-yl)quinoline-6-carboxylic acid] | 63.1 | 1.1 | 96.1 | 65.7
CC(=O)N1/C(=C\c2cc(-c3ccc(-c4ccccc4)cc3)c3cc(C(=O)O)ccc3n2)C(=O)c2ccccc21 [Example 156, (Z)-4-([1,1′-biphenyl]-4-yl)-2-((1-acetyl-3-oxoindolin-2-ylidene)methyl)-quinoline-6-carboxylic acid] | 52 | 0.9 | 99 | 35.1
CC(=O)N1/C(=C\c2cc(-c3cccc(-c4ccccc4)c3)c3cc(C(=O)N4CCN(C5COC5)CC4)ccc3n2)C(=O)c2ccccc21 [Example 158, (Z)-2-((4-([1,1′-biphenyl]-3-yl)-6-(4-(oxetan-3-yl)-piperazine-1-carbonyl)quinolin-2-yl)methylene)-1-acetylindolin-3-one] | 59.2 | 0.8 | 58.5 | 72.4
CC(=O)N1/C(=C\c2cc(-c3ccc(-c4ccccc4)cc3)c3cc(CNC4CCOCC4)ccc3n2)C(=O)c2ccccc21 [Example 168, (Z)-2-((4-([1,1′-biphenyl]-4-yl)-6-(((tetrahydro-2H-pyran-4-yl)amino)-methyl)quinolin-2-yl)methylene)-1-acetylindolin-3-one] | 48.4 | 1.3 | – | 53.1
CC(=O)N1/C(=C\c2nc3ccc(C(=O)O)cc3cc2-c2cccc3ccccc23)C(=O)c2ccccc21 [Example 202, (Z)-2-((1-acetyl-3-oxoindolin-2-ylidene)methyl)-3-(naphthalen-1-yl)-quinoline-6-carboxylic acid] | – | – | 96.6 | 63.6

Now from value to compound, other results behind:

inhibition at 1 µM [1] [%] | IC50 [1] [µM] | Compound | inhibition at 3.2 µM [2] [%] | inhibition at 3.2 µM [3] [%]
53.5 | 0.9 | CC(=O)N1/C(=C\c2cc(-c3cccc(-c4ccccc4)c3)c3cc(C(=O)O)ccc3n2)C(=O)c2ccccc21 [Example 152, (Z)-4-([1,1′-biphenyl]-3-yl)-2-((1-acetyl-3-oxo-indolin-2-ylidene)-methyl)quinoline-6-carboxylic acid] | 97.2 | 81.1
61.4 | 0.6 | CC(=O)N1/C(=C\c2cc(-c3ccc4ccccc4c3)c3cc(C(=O)O)ccc3n2)C(=O)c2ccccc21 [Example 157, (Z)-2-((1-acetyl-3-oxoindolin-2-ylidene)methyl)-4-(naphthalen-2-yl)quinoline-6-carboxylic acid] | 97.5 | 49.2
48.7 | 1.2 | CC(=O)N1/C(=C\c2cc(-c3cccc(-c4ccccc4)c3)c3cc(CNC4CCOCC4)ccc3n2)C(=O)c2ccccc21 [Example 164, (Z)-2-((4-([1,1′-biphenyl]-3-yl)-6-(((tetrahydro-2H-pyran-4-yl)amino)-methyl)quinolin-2-yl)methylene)-1-acetylindolin-3-one] | – | 43.5
43.7 | 1.5 | CC(=O)N1/C(=C\c2cc(-c3nccn3C)c3cc(C(=O)N4CCOCC4)ccc3n2)C(=O)c2ccccc21 [Example 180, (Z)-1-acetyl-2-((4-(1-methyl-1H-imidazol-2-yl)-6-(morpholine-4-carbonyl)quinolin-2-yl)methylene)-indolin-3-one] | – | 69.2
55.4 | 0.9 | CC(=O)N1/C(=C\c2cc(-c3cnccn3)c3cc(C(=O)N4CCOCC4)ccc3n2)C(=O)c2ccccc21 [Example 194, (Z)-1-acetyl-2-((6-(morpholine-4-carbonyl)-4-(pyrazin-2-yl)-quinolin-2-yl)-methylene)indolin-3-one] | – | 58.3
